We go through 3 compounds from patent US8597903B2, “Biotinidase assay” (Wallac Oy, priority 2009, dated 2013).

Data set [1] can be described thus: Storage stability of the substrate. Type of data set: physicochemical. The settings on record: prolonged storage at ambient temperature. On the procedure: Biocytin (8, 5 mg, 13 μmol) and the isothiocyanate chelate 9 (23 mg, 33 μmol) synthesized as disclosed in U.S. Pat. No. 4,920,195, were dissolved in the mixture of pyridine, water and triethylamine (9:1.5:01, v/v/v; 250 μL) and the mixture was stirred overnight at rt. The product was isolated by precipitation with acetone and purified with HPLC. Compound 10: ESI-TOF MS found, 1047.13; calcd for C40H46EuN8O12S^−1047.18.

Another data set concerns the target T1, biotinidase (Homo sapiens, UniProt P43251).
T1 construct: The blood spots (diameter 3.2 mm) were punched to the wells; from tissue; host or cells: dried blood spots (whole blood)
T1 sequence (P43251 22-523): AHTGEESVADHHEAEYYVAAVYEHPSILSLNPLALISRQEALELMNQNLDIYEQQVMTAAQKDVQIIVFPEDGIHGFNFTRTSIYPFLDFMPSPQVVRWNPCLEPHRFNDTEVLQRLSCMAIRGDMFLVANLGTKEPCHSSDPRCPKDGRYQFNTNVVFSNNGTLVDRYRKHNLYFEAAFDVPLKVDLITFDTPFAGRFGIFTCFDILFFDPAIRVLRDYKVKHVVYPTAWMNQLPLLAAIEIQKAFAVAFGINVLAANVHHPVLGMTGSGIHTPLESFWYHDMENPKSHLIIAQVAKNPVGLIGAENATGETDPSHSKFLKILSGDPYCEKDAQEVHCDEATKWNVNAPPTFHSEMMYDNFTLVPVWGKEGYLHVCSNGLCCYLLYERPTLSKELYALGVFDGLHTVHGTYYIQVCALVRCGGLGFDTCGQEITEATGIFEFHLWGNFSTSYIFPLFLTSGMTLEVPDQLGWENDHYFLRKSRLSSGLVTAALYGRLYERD
Kind of data set: Heterogenous biotinidase assay (DELFIA). Type of data set: biochemical. The settings on record: 10 nM substrate, blood spots, +37° C. for 2 hours, Eu signal by time-resolved fluorometer (FIG. 1-3). On the procedure: A heterogenous assay is based on the use of streptavidin-specific antibody, streptavidin and biotinidase substrates (compounds 3, 5 and 7). Accordingly, 200 μA of anti-streptavidin antibody (1 μg per well, Novus Biologicals cat. No. NB200-448) was pipetted to the wells of the microplate in coating buffer (50 mM TRIS pH 7.4+50 mM NaCl). The plate was incubated at RT for 3 h. After that the plate was washed 2 times with Delfia Wash solution. The blood spots (diameter 3.2 mm) were punched to the wells. 10 nM of biotinidase substrate was added to the wells in reaction buffer (50 mM MES pH 6, 0.05% BSA, 0.01% TWEEN, 50 mM NaCl). The plate was incubated with slow shaking at +37° C. for 2 hours. 100 μA 20 nM streptavidin in reaction buffer was added into the wells. The plate was incubated for 1 hour at RT with slow shaking. The plate was washed for 4 times with Delfia Wash solution. 200 μA of Delfia Inducer was added to the wells and incubated for 15 minutes at RT. The Eu signal was measured with a time-resolved fluorometer. The more there is biotinidase enzyme in the sample the lower the Eu signal is.

Structures are written as SMILES.

Regarding `O=C(O)CN(CC(=O)O)Cc1cc(C#Cc2ccc(NC(=S)NC(CCCCNC(=O)CCCCC3SCC4NC(=O)NC43)C(=O)O)cc2)cc(CN(CC(=O)O)CC(=O)O)n1` (stereo not drawn) [Compound 10], the stability on storage result in data set [1] is reported as “prone to Edman degradation”.
As for `O=C(O)CN(CCN(CC(=O)O)CC(Cc1ccc(NC(=O)CCCCCNC(=O)CCCCC2SCC3NC(=O)NC32)cc1)N(CC(=O)O)CC(=O)O)CC(=O)O` (stereo not drawn) [Compound 5], at biotinidase, the “function as a substrate for the enzyme in a biotinidase assay” value is listed as “functions as a favorable substrate”.
Same read-out and setting: in the case of `O=C(O)CN(CCN(CC(=O)O)CC(Cc1ccc(NC(=O)CCCCC2SCC3NC(=O)NC32)cc1)N(CC(=O)O)CC(=O)O)CC(=O)O` (stereo not drawn) [Compound 3] it was “does not function as a substrate”.
